Results: ChEMBL document CHEMBL1201862, “PubChem BioAssay data set” (2004)
Activity calls are given as the source filed them.

How the values were obtained:
[1] = cytotoxicity in HEK-293T cells, dose response, cytotoxicity control for BCR NF-kB inhibitor project, luminescence, B-cell screen hits (AID 489021); type: functional, cell-based;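 further: HEK-293T cells carrying an NF-kB luciferase reporter; cells exposed to compound for about 14 hours before viability readout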
[2] = target: T1, DNA repair protein RAD52 homolog (Homo sapiens, UniProt P43351); type: functional, biochemical
T1 sequence (P43351 whole entry): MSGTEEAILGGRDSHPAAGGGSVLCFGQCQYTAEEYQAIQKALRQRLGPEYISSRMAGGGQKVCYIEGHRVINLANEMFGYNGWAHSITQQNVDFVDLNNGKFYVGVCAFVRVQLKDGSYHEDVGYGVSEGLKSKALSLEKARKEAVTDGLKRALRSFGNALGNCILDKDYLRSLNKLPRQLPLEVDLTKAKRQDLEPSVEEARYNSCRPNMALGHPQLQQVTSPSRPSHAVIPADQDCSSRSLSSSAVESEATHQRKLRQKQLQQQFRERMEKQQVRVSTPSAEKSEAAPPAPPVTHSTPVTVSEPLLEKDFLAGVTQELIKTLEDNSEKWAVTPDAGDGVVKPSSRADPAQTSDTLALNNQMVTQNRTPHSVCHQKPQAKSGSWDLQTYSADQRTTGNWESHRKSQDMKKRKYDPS

[3] = target: T2, Histone-lysine N-methyltransferase NSD2 (Homo sapiens, UniProt O96028); type: biochemical
T2 sequence (O96028 whole entry): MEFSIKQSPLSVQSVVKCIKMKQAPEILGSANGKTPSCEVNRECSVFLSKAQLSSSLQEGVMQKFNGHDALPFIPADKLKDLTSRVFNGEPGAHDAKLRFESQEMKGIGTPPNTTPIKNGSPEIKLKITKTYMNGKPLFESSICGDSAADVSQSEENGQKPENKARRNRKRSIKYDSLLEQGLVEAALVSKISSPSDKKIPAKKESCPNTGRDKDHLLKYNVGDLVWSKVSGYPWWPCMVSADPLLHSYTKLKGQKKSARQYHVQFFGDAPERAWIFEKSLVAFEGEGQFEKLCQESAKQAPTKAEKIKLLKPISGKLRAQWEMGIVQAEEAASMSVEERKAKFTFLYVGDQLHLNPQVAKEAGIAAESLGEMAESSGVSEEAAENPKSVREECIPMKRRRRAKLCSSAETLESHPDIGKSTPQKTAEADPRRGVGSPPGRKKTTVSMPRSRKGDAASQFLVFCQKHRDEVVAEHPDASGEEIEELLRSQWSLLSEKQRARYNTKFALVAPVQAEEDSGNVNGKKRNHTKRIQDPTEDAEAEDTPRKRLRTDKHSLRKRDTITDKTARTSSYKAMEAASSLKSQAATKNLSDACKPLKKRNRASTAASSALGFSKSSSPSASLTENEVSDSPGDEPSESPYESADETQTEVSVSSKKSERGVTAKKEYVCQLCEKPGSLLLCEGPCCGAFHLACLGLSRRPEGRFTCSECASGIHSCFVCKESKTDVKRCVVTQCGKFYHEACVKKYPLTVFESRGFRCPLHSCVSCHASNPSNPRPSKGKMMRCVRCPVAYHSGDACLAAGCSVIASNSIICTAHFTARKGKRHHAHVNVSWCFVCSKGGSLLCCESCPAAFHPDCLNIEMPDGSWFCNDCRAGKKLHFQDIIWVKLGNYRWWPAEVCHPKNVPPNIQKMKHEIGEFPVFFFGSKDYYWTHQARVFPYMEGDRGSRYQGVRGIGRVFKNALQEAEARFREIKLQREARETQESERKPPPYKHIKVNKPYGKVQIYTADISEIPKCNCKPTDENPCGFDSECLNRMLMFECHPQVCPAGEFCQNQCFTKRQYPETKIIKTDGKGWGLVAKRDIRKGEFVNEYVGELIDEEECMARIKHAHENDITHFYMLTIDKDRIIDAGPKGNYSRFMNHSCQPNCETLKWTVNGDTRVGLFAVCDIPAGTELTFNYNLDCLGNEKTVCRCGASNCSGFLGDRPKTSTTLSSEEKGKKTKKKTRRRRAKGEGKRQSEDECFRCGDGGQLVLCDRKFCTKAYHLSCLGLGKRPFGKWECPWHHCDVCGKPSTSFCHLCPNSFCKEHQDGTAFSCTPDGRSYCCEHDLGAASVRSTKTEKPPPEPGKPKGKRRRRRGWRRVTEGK

[4] = Luminescence Cell-Based Dose Confirmation HTS to Identify Activators of 5'UTR Stem-Loop Driven Alpha-Synuclein mRNA Translation in H4 Neuroglioblastoma Cells. [Related pubchem assays: 1829 (Project Summary), 1814 (Primary HTS)]; type: functional
Protein RecA = target: T3, Protein RecA (Mycobacterium tuberculosis, UniProt P9WHJ3); experiment: Fluorescence Cell-Free Homogeneous Dose Retest to Identify Inhibitors of RecA-Intein Splicing Activity. [Related pubchem assays (depositor defined):AID2097, AID2223, AID489010, AID492950]; type: functional
T3 sequence (P9WHJ3 whole entry): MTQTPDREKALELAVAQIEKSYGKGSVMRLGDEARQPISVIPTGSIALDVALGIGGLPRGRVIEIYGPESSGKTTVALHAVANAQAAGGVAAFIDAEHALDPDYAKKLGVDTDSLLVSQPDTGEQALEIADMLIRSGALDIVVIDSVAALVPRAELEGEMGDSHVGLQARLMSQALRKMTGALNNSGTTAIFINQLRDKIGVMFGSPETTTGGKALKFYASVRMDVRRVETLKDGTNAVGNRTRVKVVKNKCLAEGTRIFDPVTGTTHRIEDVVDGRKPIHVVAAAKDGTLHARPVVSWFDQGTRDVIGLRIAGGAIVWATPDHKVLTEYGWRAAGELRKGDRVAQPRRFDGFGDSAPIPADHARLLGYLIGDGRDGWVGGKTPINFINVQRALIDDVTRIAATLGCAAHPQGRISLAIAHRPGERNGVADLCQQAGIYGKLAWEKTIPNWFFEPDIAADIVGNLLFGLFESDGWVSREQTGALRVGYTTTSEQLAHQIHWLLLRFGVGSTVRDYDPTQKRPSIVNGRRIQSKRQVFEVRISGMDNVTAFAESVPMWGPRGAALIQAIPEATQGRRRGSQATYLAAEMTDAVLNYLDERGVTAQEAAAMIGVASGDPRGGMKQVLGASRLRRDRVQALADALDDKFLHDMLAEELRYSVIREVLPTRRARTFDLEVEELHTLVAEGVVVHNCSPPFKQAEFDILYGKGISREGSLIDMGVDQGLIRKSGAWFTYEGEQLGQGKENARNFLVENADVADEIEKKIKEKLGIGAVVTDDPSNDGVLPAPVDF

[5] = target: T4, Replicative DNA helicase DnaB (Mycobacterium tuberculosis, UniProt P9WMR3); experiment: DnaB intein splicing inhibitors, dose response, biochemical, cell-free fluorescence (AID 449749); type: functional
T4 sequence (P9WMR3 whole entry): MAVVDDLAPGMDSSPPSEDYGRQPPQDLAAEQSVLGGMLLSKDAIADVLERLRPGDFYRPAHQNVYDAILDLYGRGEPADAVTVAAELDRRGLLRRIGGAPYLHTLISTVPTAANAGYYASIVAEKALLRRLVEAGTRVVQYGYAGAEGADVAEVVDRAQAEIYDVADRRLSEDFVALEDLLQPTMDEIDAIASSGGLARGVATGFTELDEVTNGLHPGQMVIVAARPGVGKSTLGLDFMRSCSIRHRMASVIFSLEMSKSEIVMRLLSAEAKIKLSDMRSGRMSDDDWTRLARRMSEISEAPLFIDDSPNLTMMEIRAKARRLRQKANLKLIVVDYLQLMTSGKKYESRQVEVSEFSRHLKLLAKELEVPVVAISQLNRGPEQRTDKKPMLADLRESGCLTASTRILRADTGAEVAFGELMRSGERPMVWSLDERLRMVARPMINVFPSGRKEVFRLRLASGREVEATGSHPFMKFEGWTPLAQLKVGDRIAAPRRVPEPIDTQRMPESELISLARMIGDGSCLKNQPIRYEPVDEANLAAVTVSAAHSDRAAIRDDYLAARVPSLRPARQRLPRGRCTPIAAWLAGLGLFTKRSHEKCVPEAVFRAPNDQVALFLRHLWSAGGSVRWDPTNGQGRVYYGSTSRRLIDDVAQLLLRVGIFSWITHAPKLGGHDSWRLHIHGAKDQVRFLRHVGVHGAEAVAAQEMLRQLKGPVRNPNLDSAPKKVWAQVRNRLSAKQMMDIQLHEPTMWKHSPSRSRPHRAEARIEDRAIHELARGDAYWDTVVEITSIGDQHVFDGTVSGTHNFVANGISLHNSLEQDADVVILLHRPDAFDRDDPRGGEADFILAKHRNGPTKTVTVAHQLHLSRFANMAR

[6] = Luminescence Cell-Based Dose Response HTS to Identify Activators of Luciferase Translation or Activity in H4 […] Cells. [Related pubchem assays: 1829 (Project Summary), 1814 (Primary HTS)]; type: functional
H4 = experiment: Luminescence Cell-Based Dose Response HTS to Identify Activators of 5'UTR Stem-Loop Driven Prion Protein mRNA Translation in H4 Neuroglioblastoma Cells. [Related pubchem assays: 1829 (Project Summary), 1814 (Primary HTS)]; type: functional; details: Homo sapiens
[7] = target: Glyceraldehyde-3-phosphate dehydrogenase (Homo sapiens, UniProt P04406)
cells = type: functional
[8] = A cytotoxicity screen of small molecule inhibitors of the PhoP region in Salmonella typhi identified in the primary screen. [Related pubchem assays: 1850, 1864, 1985 ]; type: functional
[9] = THP-1 cell cytotoxicity, dose response, cytotoxicity control for Vif-APOBEC3G degradation inhibitor project, THP-1 cells (AID 1117359); type: functional; details: Human immunodeficiency virus 1, THP-1
[10] = target: Heat shock protein HSP 90-alpha (Homo sapiens, UniProt P07900); type: functional, organism-based
Protein skinhead-1 = target: T5, Protein skinhead-1 (Caenorhabditis elegans, UniProt P34707); type: functional
T5 sequence (P34707 whole entry): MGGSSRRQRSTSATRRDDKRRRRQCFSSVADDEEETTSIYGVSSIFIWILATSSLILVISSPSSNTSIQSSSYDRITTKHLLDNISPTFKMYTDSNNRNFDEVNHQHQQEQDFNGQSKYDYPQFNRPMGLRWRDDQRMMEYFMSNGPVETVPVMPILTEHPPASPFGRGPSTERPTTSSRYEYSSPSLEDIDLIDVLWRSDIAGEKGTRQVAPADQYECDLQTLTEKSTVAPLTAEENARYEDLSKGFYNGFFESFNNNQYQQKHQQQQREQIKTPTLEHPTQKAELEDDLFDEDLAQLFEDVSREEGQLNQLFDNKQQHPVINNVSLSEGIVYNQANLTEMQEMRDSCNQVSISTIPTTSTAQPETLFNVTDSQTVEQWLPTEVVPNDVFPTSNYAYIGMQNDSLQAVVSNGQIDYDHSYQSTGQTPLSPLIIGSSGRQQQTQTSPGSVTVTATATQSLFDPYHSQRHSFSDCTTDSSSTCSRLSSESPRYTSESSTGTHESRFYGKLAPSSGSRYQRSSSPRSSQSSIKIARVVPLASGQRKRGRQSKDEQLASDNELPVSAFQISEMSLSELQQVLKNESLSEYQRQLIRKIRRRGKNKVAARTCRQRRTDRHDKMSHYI

[11] = inhibitors of intracellular T. cruzi replication, confirmation, NIH3T3 host cells, beta-gal luminescence (AID 2044); type: functional, cell-based;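 further: intracellular parasites grown in NIH/3T3 mouse fibroblasts as host cells; luminescent beta-galactosidase reporter signal from transgenic T. cruzi replicating inside host cells; inhibitors lower the luminescence signal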
[12] = cytotoxicity toward NIH3T3 fibroblasts, dose response, counter-screen, cell-based, ATP luminescence, mouse fibroblasts (AID 2010); type: functional;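 further: cells exposed to compound for about 90 hours before reading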
[13] = P. falciparum 3D7-ScDHODH growth inhibitors, dose response, SYBR Green, dry powder samples (AID 1159570); type: functional, cell-based;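 further: parasite growth measured after 72 hours of compound exposure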
[14] = P. falciparum Dd2 growth inhibitors, dose response, SYBR Green, cherry-picked samples (AID 1159567); type: functional, cell-based
[15] = P. falciparum ATP4 D1247Y mutant growth inhibitors, dose response, NITD609-resistant line, SYBR Green, dry powder (AID 1159571); type: functional, cell-based;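 further: parasites synchronized at ring stage by sorbitol before testing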
[16] = P. falciparum Dd2 growth inhibitors, dose response, SYBR Green, dry powder samples (AID 1159566); type: functional, cell-based;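 further: potency for growth inhibition with lower SYBR green DNA signal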

Sequence of Glyceraldehyde-3-phosphate dehydrogenase (P04406 whole entry): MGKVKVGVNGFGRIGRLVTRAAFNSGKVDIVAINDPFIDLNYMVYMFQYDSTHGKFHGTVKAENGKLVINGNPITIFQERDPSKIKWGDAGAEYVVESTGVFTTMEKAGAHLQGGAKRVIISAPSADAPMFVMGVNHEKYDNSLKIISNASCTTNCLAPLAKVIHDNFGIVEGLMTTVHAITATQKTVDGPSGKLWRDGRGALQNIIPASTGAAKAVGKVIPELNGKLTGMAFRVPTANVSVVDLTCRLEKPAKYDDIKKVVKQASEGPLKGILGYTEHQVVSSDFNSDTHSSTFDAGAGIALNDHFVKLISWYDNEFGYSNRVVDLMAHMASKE

N=c1c(C(=O)NC2CCCC2)cc2c(=O)n3ccccc3nc2n1CCN1CCOCC1
IC50 [1]: > 80 µM (inactive)

CN1CCN(c2ccc(N)cc2Cl)CC1
AC50 [2]: 0.931 µM (active)
AC50 [3]: > 20 µM (inactive)

CC(C)c1n[nH]c2c1C(c1ccco1)C(C#N)=C(N)O2 (stereo unspecified)
EC50 [4]: > 120 µM (not active)
EC50 (Protein RecA): 3.05 µM (active)
AC50 [5]: 32.4 µM (active)
IC50 [1]: > 80 µM (inactive)
EC50 [6]: > 120 µM (not active)
EC50 (H4): 92.5 µM (active)

O=C1C(Cl)=C(N2CCN(Cc3ccc4c(c3)OCO4)CC2)C(=O)N1c1ccc(Cl)nc1
IC50 [7]: > 50 µM (inconclusive)

COc1ccc(-c2nc3ccc(C)cc3c(=O)o2)cc1OC
IC50 (cells): 7.49 µM (active)

O=C(CCNS(=O)(=O)c1cccc2nonc12)N1CCN(c2cccc(Cl)c2)CC1
EC50 [8]: > 50 µM (active)

COC(=O)C(C)Oc1cc(C)cc2oc(=O)c3c(c12)CCC3 (stereo unspecified)
IC50 [1]: > 80 µM (inactive)

O=C(Cc1ccc(F)cc1)NC1CCCC1
EC50 [8]: > 50 µM (active)

Cc1nc(NC(=N)N)nc2ccccc12
AC50 [2]: 13.7 µM (active)

C[C@H]1CN(C2=C(Cl)C(=O)N(c3ccc(C(F)(F)F)cc3)C2=O)CCN1
IC50 [7]: > 50 µM (inconclusive)

Cc1cc(C)c2nc(NC(=O)[C@@H](NC(=O)c3cccc(S(=O)(=O)N4CCOCC4)c3)C(C)C)sc2c1
IC50 [1]: > 80 µM (inactive)

CCN(CC)CCOC(=O)c1ccc(NC(=O)CCCN2C(=O)S/C(=C/c3ccc(OC)cc3)C2=S)cc1
IC50 [1]: > 80 µM (inactive)

N#C/C(=C\c1ccc([N+](=O)[O-])o1)C(=O)Nc1ccc(F)cc1
CC50 [9]: > 40 µM (active)
AC50 [10]: 0.444 µM (active)

CC(C)(C)Nc1c2ccccc2nc2ccccc12
EC50 [8]: > 50 µM (active)

O=[N+]([O-])c1ccc2nc(-c3ccccc3)oc2c1
CC50 [9]: > 40 µM (active)
IC50 (Protein skinhead-1): 63.6 µM (inactive)

CCOc1ccccc1NC(=O)Nc1ccncc1
EC50 [8]: > 50 µM (active)

CCN1CCN(c2ccc(S(=O)(=O)N3CCCCC3)cc2NC(=O)Cc2ccc(Cl)c(Cl)c2)CC1
CC50 [9]: 21.2 µM (active)
EC50 [11]: 0.162 µM (active)
EC50 [12]: 6.52 µM (active)

C[C@@H]1CN([C@@H](C)CO)C(=O)c2cccc(NC(=O)Nc3ccc4c(c3)OCO4)c2O[C@@H]1CN(C)C(=O)Nc1ccc2c(c1)OCO2
AC50 [13]: 1.52 µM (active)
AC50 [14]: 1.2 µM (active)
AC50 [15]: 0.865 µM (active)
AC50 [16]: 0.954 µM (active)
